One compound from US4656158A, “Peptide, and production and use thereof” (Suntory Limited, priority 1984, dated 1987) can be followed below.

Each structure is given as a SMILES string.

The nature of data set [1]: solubility in solvents. It is filed as physicochemical.
The nature of data set [2]: repeated administration: immunogenicity and toxicity. It is filed as in vivo.

Regarding `CC[C@H](C)[C@@H]1NC(=O)[C@H](CCCNC(=N)N)NC(=O)[C@H](CC(=O)O)NC(=O)[C@H](CCSC)NC(=O)[C@H](CCCNC(=N)N)NC(=O)CNC(=O)CNC(=O)[C@H](Cc2ccccc2)NC(=O)[C@@H](NC(=O)[C@H](CO)NC(=O)[C@H](CO)NC(=O)[C@H](CCCNC(=N)N)NC(=O)[C@H](CCCNC(=N)N)NC(=O)[C@H](CC(C)C)NC(=O)[C@@H](N)CO)CSSC[C@@H](C(=O)N[C@@H](CC(N)=O)C(=O)N[C@@H](CO)C(=O)N[C@@H](Cc2ccccc2)C(=O)N[C@@H](CCCNC(=N)N)C(=O)N[C@@H](Cc2ccc(O)cc2)C(=O)O)NC(=O)CNC(=O)[C@H](CC(C)C)NC(=O)CNC(=O)[C@H](CO)NC(=O)[C@H](CCC(N)=O)NC(=O)[C@H](C)NC(=O)CNC(=O)[C@H]([C@@H](C)CC)NC(=O)[C@H](CCCNC(=N)N)NC(=O)[C@H](CC(=O)O)NC(=O)[C@H](CCSC)NC(=O)[C@H](CCCNC(=N)N)NC(=O)CNC(=O)CNC(=O)[C@H](Cc2ccccc2)NC(=O)[C@@H](NC(=O)[C@H](CO)NC(=O)[C@H](CO)NC(=O)[C@H](CCCNC(=N)N)NC(=O)[C@H](CCCNC(=N)N)NC(=O)[C@H](CC(C)C)NC(=O)[C@@H](N)CO)CSSC[C@@H](C(=O)N[C@@H](CC(N)=O)C(=O)N[C@@H](CO)C(=O)N[C@@H](Cc2ccccc2)C(=O)N[C@@H](CCCNC(=N)N)C(=O)N[C@@H](Cc2ccc(O)cc2)C(=O)O)NC(=O)CNC(=O)[C@H](CC(C)C)NC(=O)CNC(=O)[C@H](CO)NC(=O)[C@H](CCC(N)=O)NC(=O)[C@H](C)NC(=O)CNC1=O` [β-hANP, β-human atrial natriuretic polypeptide], the “solubility in organic solvents” value in data set [1] (ethyl acetate, butyl acetate, ethyl ether, hexane, petroleum ether, benzene, chloroform) was “insoluble”. The “solubility in methanol and acetic acid” value in data set [1] (methanol, acetic acid) was “partially”. Besides, the solubility in water result in data set [1] (water) is recorded as “soluble”. In addition, the toxicity result in data set [2] (gradually hydrolized in a body to L-amino acids) was “little toxicity”. In addition, in data set [2] (repeated administration), the anaphylaxis shock entry is given as “does not cause anaphylaxis shock” and the production of antibodies result is listed as “does not stimulate production of antibodies”.
